From US9365523B2, “Imidazolyl amide compounds and uses related thereto” (priority 2011, dated 2016) come the findings set out here.

The test system of experiment [1] is MeV-Alaska. Briefly: Viral CPE-reduction assay. Conditions: Measles morbillivirus, read-out: EC50, suppression of viral cytopathic effect (CPE), CPE.
Protocol: To rapidly pre-screen small libraries of compound analogs for antiviral activity, Vero-SLAM cells were infected with MeV-Alaska in four replicates per compound concentration in a 96-well plate format at an MOI of 0.4 pfu/cell in the presence of the inhibitor analyzed ranging from 75 μM to 293 nM in two-fold dilutions. At 96 hours post-infection, cell monolayers were subjected to crystal violet staining (0.1% crystal violet in 20% ethanol), and the absorbance of dried plates at 560 nm determined. Virus-induced cytopathicity was then calculated according to the formula [% rel. CPE=100-(experimental-minimum)/(maximum-minimum)*100], with minimum referring to infected, vehicle-treated wells and maximum to mock-infected wells.
Experiment [2] relates to MeV-Alaska. Kind of experiment: Virus yield reduction assay, MeV. The settings on record: for EC50: Measles morbillivirus. It counts as cell-based, measles virus.
The subject of the next experiment is influenza A/WSN (H1N1). Kind of experiment: microbe, parasite or virus in culture. It counts as cell-based. The settings on record: read-out: EC50, reduction of virus yield (WSN).
Another experiment relates to HPIV3. Kind of experiment: Virus yield reduction assay, HPIV3. It is filed as cell-based, human parainfluenzavirus type 3. The settings on record: Human respirovirus 3.

Broadly, the EC50 is the concentration giving half of the maximal effect. For `COCCN1CCCC(n2c(SC(C)C(=O)Nc3ccc(C)cc3Cl)nc3ccccc32)C1` (centres unmarked), the concentration for a half-maximal effect (EC50) in the experiment on MeV-Alaska [1] amounted to 1 µM.
For the compound `Cc1ccc(NC(=O)C(C)Sc2nc3ccccc3n2C2CCN(C)CC2)c(Cl)c1` (centres unmarked) [drawing 218], in the experiment on MeV-Alaska [1], the EC50 came to 1.5 µM.
Regarding `Cc1ccc(NC(=O)C(C)Sc2nc3ccccc3n2CC2CCN(C(=O)OC(C)(C)C)CC2)c(Cl)c1` (centres unmarked), the 50% effective concentration (EC50) in the experiment with MeV-Alaska [1] came out at 1.31 µM.
On to `O=C1Cc2c([nH]c3ccc([N+](=O)[O-])cc23)-c2ccccc2N1` [Alsterpaullone, reference compound], for which the “reduction in MeV yields” value in the experiment with MeV-Alaska [2] (highest concentration assessed (50 μM), Vero-Slam cells) was “only a marginal reduction”.
As to `Cc1ccc(NC(=O)[C@@H](C)Sc2nc3ccccc3n2-c2cccc(CCN3CCOCC3)c2)c(Cl)c1`, the EC50 in the experiment on MeV-Alaska [2] amounted to 0.212 µM; in the experiment with influenza A/WSN (H1N1), 0.108 µM.
`Cc1ccc(NC(=O)C(C)Sc2nc3ccccc3n2-c2cccc(CCN3CCOCC3)c2)c(Cl)c1` (centres unmarked): the EC50 in the experiment with MeV-Alaska [2] was found to be 0.0129 µM; in the experiment with influenza A/WSN (H1N1) it was 0.0003 µM.
Take `CNCCc1ccc(-n2c(SC(C)C(=O)Nc3ccc(C)cc3Cl)nc3ccccc32)cc1` (centres unmarked) [drawing 226]: the EC50 in the experiment on MeV-Alaska [1] worked out at 8.72 µM.
With `COc1ccc(-n2c(S[C@H](C)C(=O)Nc3ccc(C)cc3Cl)nc3ccccc32)cc1`, the EC50 in the experiment on MeV-Alaska [2] was determined as 0.879 µM; in the experiment on influenza A/WSN (H1N1), 0.157 µM.
On to `CC(Sc1nc2ccccc2n1-c1ccc(CCO)cc1)C(=O)Nc1ccccc1Cl` (centres unmarked), for which, in the experiment on MeV-Alaska [1], the EC50 was found to be 4.68 µM.
As to `CCN1CCN(CCn2c(SC(C)C(=O)Nc3ccc(C)cc3Cl)nc3ccccc32)CC1` (centres unmarked), the concentration for a half-maximal effect (EC50) with MeV-Alaska [1] worked out at 18.8 µM.
Same read-out and setting: for `COc1ccc(-n2c(SC(C)C(=O)Nc3ccc(C)cc3Cl)nc3cccnc32)cc1` (centres unmarked) [drawing 227] the value was 1.65 µM; for `CC(Sc1nc2ccccc2n1-c1ccc(CC=O)cc1)C(=O)Nc1ccccc1Cl` (centres unmarked), 18.8 µM.
For `Cc1ccc(NC(=O)[C@H](C)Sc2nc3ccccc3n2-c2cccc(CCN3CCOCC3)c2)c(Cl)c1`, the EC50 in the experiment on MeV-Alaska [2] (MeV) was 0.0108 µM; in the experiment with influenza A/WSN (H1N1), 0.0015 µM; in the experiment on HPIV3, 0.016 µM.
For `Cc1ccc(NC(=O)[C@H](C)Sc2nc3ccccc3n2-c2ccccc2CN2CCN(C)CC2)c(Cl)c1`, in that order: 0.685 µM, 0.004 µM and 0.016 µM.
Take `Cc1ccc(NC(=O)C(C)Sc2nc3ccccc3n2C2CCN(C(=O)OC(C)(C)C)CC2)c(Cl)c1` (centres unmarked) [drawing 220]: the EC50 in the experiment on MeV-Alaska [1] came to 0.6 µM.
Turning to `Cc1ccc(NC(=O)[C@H](C)Sc2nc3ccccc3n2-c2ccc(CCN3CCOCC3)cc2)c(Cl)c1`, the results for the EC50 in the experiment with MeV-Alaska [2] (MeV), in the experiment on influenza A/WSN (H1N1) and in the experiment on HPIV3 were 0.179 µM, 0.036 µM and 0.08 µM, respectively.
As for `Cc1ccc(NC(=O)C(C)Sc2nc3ccccc3n2[C@H]2CCCC[C@@H]2O)c(Cl)c1` (some centres unmarked), in the experiment on MeV-Alaska [1], the EC50 stood at 0.872 µM.
As to `Cc1ccc(NC(=O)C(C)Sc2nc3ccccc3n2C2CCNCC2)c(Cl)c1` (centres unmarked) [drawing 219], the EC50 with MeV-Alaska [1] was more than 75 µM.
As for `Cc1ccc(NC(=O)C(C)Sc2nc3ccccc3n2CCN2CCNCC2)c(Cl)c1` (centres unmarked), in the experiment with MeV-Alaska [1], the EC50 was more than 75 µM.
Turning to `COc1ccc(-n2c(SC(CCO)C(=O)Nc3ccccc3)nc3ccccc32)cc1` (centres unmarked), the EC50 in the experiment on MeV-Alaska [1] worked out at 27.8 µM.
`Cc1ccc(NC(=O)C(C)Sc2nc3ccccc3n2-c2cccc(CN3CCN(C)CC3)c2)c(Cl)c1` (centres unmarked) [drawing 252]: the EC50 in the experiment with MeV-Alaska [1] was determined as 1.28 µM.
On the same count and under the same terms, in the case of `CCN1CCCC1Cn1c(SC(C)C(=O)Nc2ccc(C)cc2Cl)nc2ccccc21` (centres unmarked) [drawing 214] it was 3.58 µM.
For the compound `Cc1ccc(NC(=O)C(C)Sc2nc3ccccc3n2-c2ccc(CCN3CCOCC3)cc2)c(Cl)c1` (centres unmarked), the EC50 with MeV-Alaska [2] was determined as 0.111 µM; in the experiment on influenza A/WSN (H1N1), 0.043 µM.
As for `Cc1ccc(NC(=O)C(C)Sc2nc3ccccc3n2CCN2CCN(C(=O)OC(C)(C)C)CC2)c(Cl)c1` (centres unmarked), the half-maximal effective concentration (EC50) in the experiment with MeV-Alaska [1] was determined as 1.32 µM.
Regarding `Cc1ccc(NC(=O)C(C)Sc2nc3ccccc3n2-c2ccc(CCO)cc2)c(Cl)c1` (centres unmarked) [drawing 224], in the experiment on MeV-Alaska [1], the EC50 amounted to 2.5 µM.
Turning to `Cc1ccc(NC(=O)C(C)Sc2nc3ccccc3n2-c2ccc(CCNCCN3CCOCC3)cc2)c(Cl)c1` (centres unmarked), the EC50 in the experiment with MeV-Alaska [1] worked out at 1.91 µM.
For `Cc1ccc(NC(=O)C(C)Sc2nc3ccccc3n2-c2ccccc2CO)c(Cl)c1` (centres unmarked), in the experiment on MeV-Alaska [1], the EC50 amounted to 0.8 µM.
The same measure, in the same setting: in the case of `Cc1ccc(NC(=O)C(C)Sc2nc3ccccc3n2CC2CCNCC2)c(Cl)c1` (centres unmarked) it was more than 75 µM; in that of `Cc1ccc(NC(=O)C(C)Sc2nc3ccccc3n2-c2ccc(CO)cc2)c(Cl)c1` (centres unmarked) [drawing 229], 3.91 µM.
Turning to `Cc1ccc(NC(=O)C(C)Sc2nc3ccccc3n2-c2ccc(CC=O)cc2)c(Cl)c1` (centres unmarked) [drawing 225], the EC50 with MeV-Alaska [1] was 8.5 µM.
For `Cc1ccc(NC(=O)C(C)Sc2nc3ccccc3n2[C@H]2CC[C@H](O)CC2)c(Cl)c1` (some centres unmarked), the EC50 in the experiment on MeV-Alaska [1] amounted to 2.74 µM.
Regarding `Cc1ccc(NC(=O)C(C)Sc2nc3ccccc3n2-c2cccc(CO)c2)c(Cl)c1` (centres unmarked) [drawing 230], the EC50 in the experiment with MeV-Alaska [1] is 0.7 µM.
With `Cc1ccc(NC(=O)C(C)Sc2nc3ccccc3n2-c2cccc(CCN3CCCC3)c2)c(Cl)c1` (centres unmarked), the EC50 in the experiment with MeV-Alaska [1] worked out at 1.66 µM.
For `Cc1ccc(NC(=O)C(C)Sc2nc3ccccc3n2CCN2CCOCC2)c(Cl)c1` (centres unmarked), the EC50 in the experiment with MeV-Alaska [1] amounted to 4.85 µM.
